Results as given in PMC11881343, “Safety of ilunocitinib tablets (Zenrelia™) after once daily oral administration in dogs” (BMC Veterinary Research, 2025).

How the values were obtained:
[1] = system: healthy Beagle dogs; test: 6-month safety study: organ weights, gross and microscopic examinations; conditions: 5X group
Experimental: At study termination (study day 183), the dogs were humanely euthanized by an intravenous injection of pentobarbital sodium/phenytoin solution under sedation with 6.6–13.2 mg/kg Telazol® (tiletamine/zolazepam) subcutaneous injection. Gross and microscopic examinations were carried out on all animals by a board-certified veterinary pathologist.

[2] = 6-month safety study: body weights and food consumption; assay type: in vivo, dog
Experimental: (§1) Endpoints measured multiple times post-treatment that included a pre-treatment measurement (Serum chemistry, C-reactive protein, coagulation, hematology, urinalysis, body weight, body weight changes and food consumption) were analyzed using repeated measures analysis of covariance (RMANCOVA) with ‘treatment’, ‘time’, and ‘sex’; the two-way interactions ‘treatment by time’, ‘treatment by sex’, and ‘sex by time’; the three-way interaction ‘treatment by time by sex’ and a covariate all as fixed effects. The last available pre-treatment value was used as the covariate.

[3] = Plasma pharmacokinetics of ilunocitinib (LC-MS/MS, non-compartmental analysis)
Experimental: (§2) Samples were collected at pre-dose and at 0.5, 1, 2, 5, 8 and 24 h post-dosing on the day of the first and last dose (study days 1 and 182) and at pre-dose and at 1 and 24 h post-dosing at study day 85. Blood samples were collected in tubes containing K2 EDTA. Blood was processed to plasma within one hour of collection and plasma samples were stored frozen at -20 °C until analyzed.
(§3) The bioanalytical data were processed as individual concentration vs. time profiles using a non-compartmental analysis (NCA). Calculations were performed with the software Phoenix WinNonlin (version 8.3; Certara, USA). Tmax and Cmax were derived from observed values. AUCs were calculated using the Linear Up Log Down method. In addition, T1/2 was calculated using the best fit method and dose, time and sex effects were evaluated based on Cmax and AUClast ratios.

[4] = system: dogs; conditions: field conditions; cited from earlier work
[5] = system: healthy Beagle dogs; test: 6-month safety study: clinical pathology (hematology, coagulation, clinical chemistry, C-reactive protein, urinalysis); assay type: in vivo, dog; conditions: for MCHC, effect compared to 0X / Hb (hemoglobin), effect compared to 0X / Total Protein, effect compared to 0X / MCH, effect compared to 0X / HCT (hematocrit), effect compared to 0X / RBC, effect compared to 0X: all study days; for Hb (hemoglobin), effect compared to 0X / HCT (hematocrit), effect compared to 0X / RBC, effect compared to 0X: pooled sexes; for Total Protein, effect compared to 0X: significant in pooled by sex, males (2X, 3X, 5X) females (3X, 5X); for Albumin, effect compared to 0X: beginning on study day 57; for Eosinophils, effect compared to 0X: study days 29–183, females only; for Fibrinogen, effect compared to 0X: study days 57–183, association with interdigital cysts
Experimental: Blood samples were collected from the jugular vein for the evaluation of hematology, clinical chemistry and coagulation variables at pre-test, and on study days 29, 57, 85, 113, 141, 169 and 183. The complete panel of clinical pathology parameters (hematology, blood chemistry and urinalysis) according to VICH Guideline 43 [10] are listed in Table 1. Urine samples were collected using steel pans placed under the cages for at least 16 h at the same timepoints.
as §1
If the interaction terms were significant (P ≤ 0.10 level for two-way interactions and P ≤ 0.05 for the three-way interaction), treated groups were compared to the control either within each sex (treatment by sex significant), within each time point (treatment by time significant) or main effect only (neither treatment by sex nor treatment by time significant).

[6] = system: leukocyte subsets (T, Th, Tc, B lymphocytes, monocytes); test: Peripheral blood immunophenotyping by flow cytometry; assay type: in vivo, dog; conditions: either sex at any dose level
Excerpt: Whole blood samples were also collected from the jugular vein for the evaluation of the leukocyte subsets and phenotypes on study days − 16 and − 8, and on study days 29, 57, 85, 113, 141, 169 and 183. The immunophenotype profiling by flow cytometry included total T lymphocytes (CD45 + CD5 + or CD5 + T cells), Helper T lymphocytes (CD45 + CD5 + CD4 + or CD4 + Th cells), Cytotoxic T lymphocytes (CD45 + CD5 + CD8 + or CD8 + Tc cells), B lymphocytes (CD45 + CD5- CD21 + or CD21 + B cells) and monocytes (CD45 + CD14+).
For immunophenotyping/peripheral blood leukocytes, a generalized linear mixed model for repeated measures analysis of variance (mixed model) was conducted. For each endpoint, the model tested for the effects of treatment, time, sex and all two and three-way interactions. The last available pre-treatment value was included in the model as a covariate. The evaluation proceeded as described for RMANCOVA.

[7] = dog, in vivo
Experimental: as §2, §3

[8] = 1X group (0.8 mg/kg/day, 6 months)
[9] = 2X group (1.6 mg/kg/day, 6 months)
[10] = 3X group (2.4 mg/kg/day, 6 months)
[11] = 5X group (4.0 mg/kg/day, 6 months)
[12] = males at 2X, 3X, and 5X and females at 5X, beginning study day 57, 85, or 113 through study day 183

N#CCC1(n2cc(-c3ncnc4[nH]ccc34)cn2)CN(S(=O)(=O)C2CC2)C1 [ilunocitinib]
Prostate weight, prostate weight as a percent of body weight and ratio of prostate weight to brain weight vs controls [1]: significantly decreased | Body weight gain [2, 8]: 0.06 ± 0.02 kg | mean body weight (± standard error) throughout the study [2, 8]: 10.30 ± 0.20 kg | body weight, treatment effect vs control ([2]; 1X, 3X and 5X groups, main effect of treatment p = 0.0026): statistically significant increases | Body weight gain [2, 9]: 0.03 ± 0.02 kg | mean body weight (± standard error) throughout the study [2, 9]: 9.76 ± 0.20 kg | body weight change, treatment effect vs control ([2]; 3X and 5X, main effect of treatment p = 0.0952): statistically significant increases | Body weight gain [2, 10]: 0.06 ± 0.02 kg | mean body weight (± standard error) throughout the study [2, 10]: 10.31 ± 0.20 kg | Body weight gain [2, 11]: 0.06 ± 0.02 kg | mean body weight (± standard error) throughout the study [2, 11]: 10.46 ± 0.20 kg | weekly averaged daily food consumption, treatment effect ([2]; all dose groups): statistically significant (p = 0.0872) time by treatment interaction | AUC ratio, study day 182 vs day 1 ([3]; group 2 (1X: 0.8 mg/kg)): 1.2 | AUC ratio, study day 182 vs day 1 ([3]; group 3 (2X: 1.6 mg/kg)): 1.4 | AUC ratio, study day 182 vs day 1 ([3]; group 4 (3X: 2.4 mg/kg)): 1.6 | AUC ratio, study day 182 vs day 1 ([3]; group 5 (5X: 4.0 mg/kg)): 1.2 | Weight gain in dogs under field conditions [4]: in very few cases | red cell parameters ([5]; 1X group): stayed within the reference range | MCHC, effect compared to 0X ([5]; 2X (1.6 mg/kg/day)): minimally lower and ↓ | Hb (hemoglobin), effect compared to 0X ([5]; 2X (1.6 mg/kg/day)): minimally lowered and ↓ | Total Protein, effect compared to 0X ([5]; 2X (1.6 mg/kg/day)): ↑ | MCH, effect compared to 0X ([5]; 3X (2.4 mg/kg/day)): minimally lower and ↓ | MCHC, effect compared to 0X ([5]; 3X (2.4 mg/kg/day)): minimally lower and ↓ | HCT (hematocrit), effect compared to 0X ([5]; 3X (2.4 mg/kg/day)): ↓ | Hb (hemoglobin), effect compared to 0X ([5]; 3X (2.4 mg/kg/day)): minimally lowered and ↓ | RBC, effect compared to 0X ([5]; 3X (2.4 mg/kg/day)): ↓ | Total Protein, effect compared to 0X ([5]; 3X (2.4 mg/kg/day)): ↑ | Albumin, effect compared to 0X ([5]; 3X (2.4 mg/kg/day)): minimally lower and ↓ | Total Protein, effect compared to 0X (time by treatment interaction) ([5]; 3X (2.4 mg/kg/day), study day 113): minimally higher means and ↑ | Eosinophils, effect compared to 0X ([5]; 3X (2.4 mg/kg/day)): ↓ | Fibrinogen, effect compared to 0X ([5]; 3X (2.4 mg/kg/day)): marginally elevated concentrations and ↑ | MCH, effect compared to 0X ([5]; 5X (4.0 mg/kg/day)): minimally lower and ↓ | MCHC, effect compared to 0X ([5]; 5X (4.0 mg/kg/day)): minimally lower and ↓ | HCT (hematocrit), effect compared to 0X ([5]; 5X (4.0 mg/kg/day)): ↓ | Hb (hemoglobin), effect compared to 0X ([5]; 5X (4.0 mg/kg/day)): minimally lowered and ↓ | RBC, effect compared to 0X ([5]; 5X (4.0 mg/kg/day)): ↓ | Total Protein, effect compared to 0X ([5]; 5X (4.0 mg/kg/day)): ↑ | Albumin, effect compared to 0X ([5]; 5X (4.0 mg/kg/day)): minimally lower and ↓ | Eosinophils, effect compared to 0X ([5]; 5X (4.0 mg/kg/day)): ↓ | Fibrinogen, effect compared to 0X ([5]; 5X (4.0 mg/kg/day)): marginally elevated concentrations and ↑ | Total Protein, effect compared to 0X (time by treatment interaction) ([5]; 5X (4.0 mg/kg/day), study days 85,113,141): minimally higher means and ↑ | myeloid: erythroid ratios ([5]; Two dogs in the 5X group): minimally lower | effects on lymphocytes, monocytes, basophils and reticulocytes ([5]; all dose levels): no treatment-related effects | alkaline phosphatase, alanine aminotransferase, aspartate aminotransferase, triglycerides, plasma creatinine and urea levels or any other clinical chemistry parameters ([5]; all treatment groups, within normal ranges): No changes | effects on urinalysis endpoints ([5]; either sex at any dose level): no test article-related effects | C-reactive protein (CRP) levels ([5]; elevated doses, dogs with visible skin disease): higher | Total protein values in males vs control ([5]; males at 2X, 3X, and 5X): significantly (p = 0.0437) higher | Mean globulin concentrations vs control means [5, 12]: minimally higher | mean albumin/globulin ratios vs control means [5, 12]: minimally to mildly lower | prothrombin time and activated partial thromboplastin time ([5]; throughout the study, all dose levels): remained in the reference range | effects on leukocyte analysis (immunophenotyping) parameters [6]: no test article-related effects | half-life [7]: approximately 3 h | increase of exposure with dose [7]: close to dose proportional
